Test results as given in the NIST ThermoML archive (doi:10.1016/j.jct.2013.10.034).

Experiment: xn = mol fraction of the nth substance listed
Settings: 100 kPa, Liquid; for viscosity: Falling or rolling sphere viscometry; for mass density: Vibrating tube method

CCCC[N+]1(C)CCCC1.N#CN=C=[N-] [1-butyl-1-methylpyrrolidinium dicyanamide] + O
Settings	mass density, 298.15 K [kg/m3]	mass density, 303.15 K [kg/m3]	mass density, 308.15 K [kg/m3]	mass density, 313.15 K [kg/m3]	mass density, 318.15 K [kg/m3]	viscosity, 298.15 K [mPa·s]	viscosity, 303.15 K [mPa·s]	viscosity, 308.15 K [mPa·s]	viscosity, 313.15 K [mPa·s]	viscosity, 318.15 K [mPa·s]
x1 = 0.0729	1007.24	1004.74	1001.6	998.69	995.65	4.316	3.713	3.226	2.83	2.5
x1 = 0.1652	1012.47	1009.29	1006.1	1002.9	999.68	7.983	6.795	5.903	5.143	4.486
x1 = 0.2234	1014.18	1010.84	1007.7	1004.59	1001.37	9.939	8.502	7.346	6.408	5.632
x1 = 0.3163	1015.68	1012.43	1009.37	1006.34	1003.18	12.88	11.02	9.521	8.303	7.302
x1 = 0.3548	1016.11	1012.9	1009.87	1006.88	1003.78	13.94	11.96	10.37	9	7.982
x1 = 0.4198	1016.65	1013.55	1010.57	1007.61	1004.58	15.86	13.57	11.73	10.23	9.005
x1 = 0.4762	1016.99	1014	1011.05	1008.11	1005.15	17.41	14.9	12.88	11.23	9.9
x1 = 0.5239	1017.27	1014.32	1011.4	1008.46	1005.54	18.57	15.9	13.75	12	10.57
x1 = 0.6244	1017.71	1014.87	1011.99	1009.1	1006.25	21.49	18.37	15.87	13.83	12.17
x1 = 0.629	1017.73	1014.89	1012.02	1009.13	1006.28	21.62	18.48	15.96	13.91	12.24
x1 = 0.711	1018.09	1015.28	1012.42	1009.55	1006.71	24.03	20.5	17.69	15.4	13.55
x1 = 0.7413	1018.22	1015.41	1012.56	1009.72	1006.88	24.99	21.31	18.34	15.98	14.02
x1 = 0.8776	1018.79	1015.96	1013.13	1010.35	1007.51	29.68	25.19	21.64	18.78	16.46
x1 = 0.9732	1019.13	1016.28	1013.47	1010.72	1007.94	33.6	28.4	24.32	21.05	18.4
x1 = 1	1019.2	1016.38	1013.58	1010.79	1008	34.74	29.33	25.09	21.7	18.95
